What was measured:
IDO1 enzyme = IDO1 enzyme (Homo sapiens, UniProt P14902); experiment: Determination of biochemical activity of IDO1 enzyme (absorbance at 320 nm); conditions: room temperature, 3 hours
Experimental: (1) Method for Determining Biochemical Activity of IDO1 Enzyme
Firstly, 15 μl of buffer solution of sodium hydrogen phosphate (PH:7-8), 5 μl of reaction buffer solution containing a proper amount of IDO-1 enzyme and heterocyclic urea compound prepared by the invention were added into wells of a microplate, mixed evenly, and reacted at room temperature for 3 hours; then a light absorption value at 320 nm wavelength was detected by using Envision Multilabel Reader of PE company, an inhibition rate of the heterocyclic urea compound on the enzyme reaction was calculated according to an absorption ratio, and an IC50 value of the heterocyclic urea compound was calculated through analysis by GraphPad.

[1] = biological target: T1, IDO1 enzyme in the Hela cell (Homo sapiens, UniProt P14902); experiment: Cell activity: interferon γ-stimulated Hela cells, absorbance of supernatant at 480 nm; assay type: cell-based; conditions: interferon γ 100 ng/ml, 72 hours
T1 construct: endogenous in cells; host or cells: HeLa cells stimulated with interferon γ (100 ng/ml)
Experimental: (2) Method for Determining Cell Activity
Hela cells were cultured and passaged in a DMEM medium supplemented with antibiotics in a 37° C. CO2 incubator, inoculated into a 96-well plate for overnight culture, then 1 μl of heterocyclic urea compound with appropriate concentration was added to each well, and then 100 μl of interferon γ (final concentration was 100 ng/ml) was added. After the cells were continuously cultured for 72 hours, 70 μl of cell culture supernatant was added to a 96-well V-bottom plate, 5 μl of trichloroacetic acid (6.1 N) was added to each well, incubated at 50° C. for 30 min, then taken out and centrifuged at […] for 10 min. The above centrifuged supernatant was transferred to a 384-well microplate (20 μl/well), then 20 μl of 2% didimethylaminobenzaldehyde acetic acid solution was added to each well, shaken and mixed evenly, then photometric absorption was performed at 480 nm, and values were measured.

T1 sequence (P14902 whole entry): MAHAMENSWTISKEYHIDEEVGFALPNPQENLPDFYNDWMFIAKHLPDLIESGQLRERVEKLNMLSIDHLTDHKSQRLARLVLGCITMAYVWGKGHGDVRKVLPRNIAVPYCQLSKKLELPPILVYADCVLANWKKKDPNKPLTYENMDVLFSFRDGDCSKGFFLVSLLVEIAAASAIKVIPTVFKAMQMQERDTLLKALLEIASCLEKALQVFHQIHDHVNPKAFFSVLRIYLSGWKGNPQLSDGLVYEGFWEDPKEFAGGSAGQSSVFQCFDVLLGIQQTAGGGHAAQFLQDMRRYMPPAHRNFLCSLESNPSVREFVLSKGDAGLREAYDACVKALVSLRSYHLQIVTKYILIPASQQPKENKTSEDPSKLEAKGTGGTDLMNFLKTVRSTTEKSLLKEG
IDO1 enzyme, sequence (P14902 whole entry): as above

Compound | IC50 (IDO1 enzyme) | IC50 [1]
COc1ccc(NC(=O)Nc2conc2/C(=N/O)Nc2ccc(F)c(Cl)c2)cc1 [Embodiment 112, (Z)-1-(4-(N-(3-chloro-4-fluorophenyl)-N′-hydroxyaminoiminomethyl)-isoxazole-3-substituted)-4-(4-methoxyphenyl)urea] | 0.1 to 1 µM | 0.1 to 1 µM
CS(=O)(=O)N1CCN(C(=O)Nc2nonc2/C(=N/O)Nc2ccc(F)c(Br)c2)CC1 [Embodiment 50] | 0.1 to 1 µM | 0.1 to 1 µM
O=C(NCCCO)Nc1conc1/C(=N/O)Nc1ccc(F)c(Br)c1 [Embodiment 109] | < 0.001 µM | < 0.001 µM
OCCCNC(=S)Nc1nonc1/C(=N/O)Nc1ccc(F)c(Br)c1 [Embodiment 127, (Z)-1-(4-(N-(3-bromo-4-fluorophenyl)-N′-hydroxyaminoiminomethyl)-1,2,5-oxadiazole-3-substituted)-3-(3-hydroxypropyl)thiourea] | < 0.001 µM | < 0.001 µM
O=C(Nc1nocc1/C(=N/O)Nc1ccc(F)c(Br)c1)Nc1cccc2[nH]ccc12 [Embodiment 94, (Z)-1-(4-(N-(3-bromo-4-fluorophenyl)-N′-hydroxyaminoiminomethyl)-isoxazole-3-substituted)-3-(4-aminoindole)urea] | 0.1 to 1 µM | 0.1 to 1 µM
O=C(Nc1cocc1/C(=N/O)Nc1ccc(F)c(Br)c1)NC1CC1 [Embodiment 65] | 0.1 to 1 µM | 0.1 to 1 µM
O=C(Nc1nonc1/C(=N/O)Nc1ccc(F)c(Br)c1)NC1CCOC1 (centres unmarked) [Embodiment 47, (Z)-1-(4-(N-(3-bromo-4-fluorophenyl)-N′-hydroxyaminoiminomethyl)-1,2,5-oxadiazole-3-substituted)-3-(tetrahydrofuran-substituted)urea] | 0.1 to 1 µM | 0.1 to 1 µM
N=C(Nc1ccc(C(F)(F)F)cc1)Nc1nonc1/C(=N/O)Nc1ccc(F)c(Br)c1 [Embodiment 143, (Z)-1-(4-(N-(3-bromo-4-fluorophenyl)-N′-hydroxyaminoiminomethyl)-1,2,5-oxadiazole-3-substituted)-3-(4-trifluorophenyl)guanidine] | > 1 µM | > 1 µM
COc1ccc(NC(=N)Nc2conc2/C(=N/O)Nc2ccc(F)c(Cl)c2)cc1 [Embodiment 154, (Z)-1-(4-(N-(3-chloro-4-fluorophenyl)-N′-hydroxyaminoiminomethyl)-isoxazole-3-substituted)-4-(4-methoxyphenyl)guanidine] | 0.1 to 1 µM | 0.1 to 1 µM
O=C(Nc1ccccc1)Nc1nonc1/C(=N/O)Nc1ccc(F)c(Br)c1 [Embodiment 19, (Z)-1-(4-(N-(4-bromo-3-fluorophenyl)-N′-hydroxyaminoiminomethyl)-1,2,5-oxadiazole-3-substituted)-3-phenylurea] | 0.1 to 1 µM | 0.1 to 1 µM
CCc1cccc(NC(=O)Nc2nonc2/C(=N/O)Nc2ccc(F)c(Br)c2)c1 [Embodiment 2, (Z)-1-(4-(N-(3-bromo-4-fluorophenyl)-N′-hydroxyaminoiminomethyl)-1,2,5-oxadiazole-3-substituted)-3-(3-ethylphenyl)urea] | 0.1 to 1 µM | 0.1 to 1 µM
NS(=O)(=O)N1CCN(C(=O)Nc2nonc2/C(=N/O)Nc2ccc(F)cc2)CC1 [Embodiment 56] | < 0.001 µM | < 0.001 µM
O=C(Nc1cocc1/C(=N/O)Nc1ccc(F)c(Br)c1)NC1CCCCC1 [Embodiment 61, (Z)-1-(4-(N-(3-bromo-4-fluorophenyl)-N′-hydroxyaminoiminomethyl)-furan-3-substituted)-3-cyclohexylurea] | 0.1 to 1 µM | 0.1 to 1 µM
O=C(Nc1cocc1/C(=N/O)Nc1ccc(F)c(Br)c1)NC1CCCC1 [Embodiment 62, (Z)-1-(4-(N-(3-bromo-4-fluorophenyl)-N′-hydroxyaminoiminomethyl)-furan-3-substituted)-3-cyclopentylurea] | 0.1 to 1 µM | 0.1 to 1 µM
CCCNC(=O)Nc1nocc1/C(=N/O)Nc1ccc(F)c(Br)c1 [Embodiment 91, (Z)-1-(4-(N-(3-bromo-4-fluorophenyl)-N′-hydroxyaminoiminomethyl)-isoxazole-3-substituted)-3-(propyl)urea] | 0.1 to 1 µM | 0.1 to 1 µM
O=C(Nc1ccc(O)cc1)Nc1nonc1/C(=N/O)Nc1ccc(F)c(Cl)c1 [Embodiment 23] | < 0.001 µM | < 0.001 µM
NCCNC(=O)Nc1nocc1/C(=N/O)Nc1ccc(F)c(Br)c1 [Embodiment 90, (Z)-1-(4-(N-(3-bromo-4-fluorophenyl)-N′-hydroxyaminoiminomethyl)-isoxazole-3-substituted)+3-(2-aminoethyl)urea] | < 0.001 µM | < 0.001 µM
N=C(Nc1nocc1/C(=N/O)Nc1ccc(F)c(Br)c1)NC1CCCCC1 [Embodiment 159, (Z)-1-(4-(N-(3-bromo-4-fluorophenyl)-N′-hydroxyaminoiminomethyl)-isoxazole-3-substituted)-3-cyclohexylguanidine] | 0.1 to 1 µM | 0.1 to 1 µM
COc1ccc(NC(=S)Nc2conc2/C(=N/O)Nc2ccc(F)c(Cl)c2)cc1 [Embodiment 130, (Z)-1-(4-(N-(3-chloro-4-fluorophenyl)-N′-hydroxyaminoiminomethyl)-isoxazole-3-substituted)-4-(4-methoxyphenyl)thiourea] | 0.1 to 1 µM | 0.1 to 1 µM
COc1cccc(NC(=O)Nc2nocc2/C(=N/O)Nc2ccc(F)c(Br)c2)c1 [Embodiment 80, (Z)-1-(4-(N-(3-bromo-4-fluorophenyl)-N′-hydroxyaminoiminomethyl)-isoxazole-3-substituted)-3-(3-methoxyphenyl)urea] | > 1 µM | > 1 µM
N=C(Nc1ccccc1)Nc1nocc1/C(=N/O)Nc1ccc(F)c(Br)c1 [Embodiment 158, (Z)-1-(4-(N-(3-bromo-4-fluorophenyl)-N′-hydroxyaminoiminomethyl)-isoxazole-3-substituted)-3-phenylguanidine] | 0.1 to 1 µM | 0.1 to 1 µM
O=C(NCCO)Nc1cocc1/C(=N/O)Nc1ccc(F)c(Br)c1 [Embodiment 68, (Z)-1-(4-(N-(3-bromo-4-fluorophenyl)-N′-hydroxyaminoiminomethyl)-furan-3-substituted)+3-(2-hydroxyethyl)urea] | 0.1 to 1 µM | 0.1 to 1 µM
O=C(Nc1ncccn1)Nc1nonc1/C(=N/O)Nc1ccc(F)c(Br)c1 [Embodiment 43, (Z)-1-(4-(N-(3-bromo-4-fluorophenyl)-N′-hydroxyaminoiminomethyl)-1,2,5-oxadiazole-3-substituted)-3-(pyrimidine-2-substituted)urea] | > 1 µM | > 1 µM
O=C(Nc1nocc1/C(=N/O)Nc1ccc(F)c(Br)c1)NC1CC1 [Embodiment 86, (Z)-1-(4-(N-(3-bromo-4-fluorophenyl)-N′-hydroxyaminoiminomethyl)-isoxazole-3-substituted)-3-(cyclopropyl)urea] | > 1 µM | > 1 µM
O=C(Nc1nocc1/C(=N/O)Nc1ccc(F)c(Br)c1)NC1CCCCC1 [Embodiment 82, (Z)-1-(4-(N-(3-bromo-4-fluorophenyl)-N′-hydroxyaminoiminomethyl)-isoxazole-3-substituted)-3-(cyclohexyl)urea] | 0.1 to 1 µM | 0.1 to 1 µM

Reference: patent publication US11014895B2, “Heterocyclic urea compound, and drug composition and application thereof” (CHINA PHARMACEUTICAL UNIVERSITY, priority 2017, dated 2021)
